Columns and labels:
[1] = Stability at 40° C. and 75% relative humidity (percent purity by HPLC); type: physicochemical; conditions: 40° C. and 75% RH
Method: As used herein, a “stable composition” refers a composition comprising a sulfur-containing compound and a baseline amount of the compound of formula (I) (e.g., such as percent purity as measured by HPLC) such that, after being subjected to standard stability conditions (e.g., 40° C. and 75% relative humidity) for a specified period of time (e.g., 1 day, 2 days, 3 days, 4 days, 5 days, 7 days, 14 days, 21 days, or 30 days), at least about 80% of the original amount of the compound of formula (I) remains in the composition (i.e., has not oxidized to a compound of formula (II) or degraded to other by-products). In certain embodiments, at least about 85%, at least about 90%, at least about 91%, at least about 92%, at least about 93%, at least about 94%, or at least about 95% of the original amount of the hydroquinone compound of formula (I) remains in the composition for a specified period of time (e.g., 1 day, 2 days, 3 days, 4 days, 5 days, 7 days, 14 days, 21 days, or 30 days).
The stability data for 17-AG-HQ of Example 2 when kept at 40° C. and 75% relative humidity (RH) is depicted in FIG. 8 (see Table 2 for tabulated stability data). It was observed that 17-AG-HQ of Example 2 completely oxidizes to its quinone form in two weeks at 40° C. and […] as determined by HPLC.

[2] = Solubilizing or suspending agents: color change as indication of oxidation of 17-AG-HQ to 17-AG; type: physicochemical; conditions: argon headspace, checked up to one hour
Method: Solvents (2 mL) were pipetted out into labeled vials (Table 4). After purging the headspace with argon, the solvent vials were chilled at 4° C. for 1 hour. 17-AG-HQ of Example 2 (10 mg) was added each solvent vial and headspace was purged again with argon. The vials were checked for color change for up to one hour. Color change is an indication of stability: 17-AG-HQ is yellow while 17-AG is pink, thus a color change from yellow to pink would indicate oxidation of 17-AG-HQ to 17-AG. This listing of suitable solvents or suspending agents is also applicable for solvating/suspending the hydroquinones of Examples 3-6, 8, 10 or 11.

[3] = Table 12, formulations of 17-AG-HQ of Example 2

CO[C@H]1/C=C\C=C(/C)C(=O)Nc2cc(O)c(N)c(c2O)C[C@@H](C)C[C@H](OC)[C@H](O)[C@@H](C)/C=C(\C)[C@@H]1OC(N)=O [17-AG-HQ of Example 2, 17-amino-geldanamycin hydroquinone]
time in which the hydroquinone completely oxidizes to its quinone form ([1]; determined by HPLC): two
stability compared to 17-AG-HQ HCl salt of Example 1 ([1]; more prone to oxidation): less stable
Percent Purity of 17-AG-HQ T = 0 Days ([1]; Table 2): 92%
Percent Purity of 17-AG-HQ T = 2 Days ([1]; Table 2): 66%
Percent Purity of 17-AG-HQ T = 5 Days ([1]; Table 2): 22%
Percent Purity of 17-AG-HQ T = 14 Days ([1]; Table 2): 0%
Percent Purity of 17-AG-HQ T = 30 Days ([1]; Table 2): 0%
Percent Purity of 17-AG-HQ T = 0 Days [1, 3]: 92%
Percent Purity of 17-AG-HQ T = 2 Days [1, 3]: 66%
Percent Purity of 17-AG-HQ T = 5 Days [1, 3]: 22%
Percent Purity of 17-AG-HQ T = 14 Days [1, 3]: 0%
Percent Purity of 17-AG-HQ T = 30 Days [1, 3]: 0%
Observations ([2]; Acetone, 10 mg in 2 mL solvent chilled at 4° C.): Dissolves with no color change
Observations ([2]; DMSO:Acetonitrile:TFA (80:20:0.1), 10 mg in 2 mL solvent chilled at 4° C.): Dissolves with color change to rusty
Observations ([2]; Dichloromethane, 10 mg in 2 mL solvent chilled at 4° C.): Dissolves with no color change
Observations ([2]; Ethanol, 10 mg in 2 mL solvent chilled at 4° C.): Dissolves with no color change
Observations ([2]; Methanol, 10 mg in 2 mL solvent chilled at 4° C.): Dissolves with color change to red
Observations ([2]; Mineral Oil, 10 mg in 2 mL chilled at 4° C.): Suspends with no color change
Observations ([2]; Propylene Glycol, 10 mg in 2 mL solvent chilled at 4° C.): Dissolves with color change to rusty
Observations ([2]; Toluene, 10 mg in 2 mL solvent chilled at 4° C.): Dissolves with no color change
Observations ([2]; Xylene, 10 mg in 2 mL solvent chilled at 4° C.): Dissolves with no color change

— patent publication US8778921B2, “Ansamycin hydroquinone compositions” (Infinity Pharmaceuticals, Inc., priority 2008, dated 2014)
